According to ChEMBL document CHEMBL1122998, “New antihistaminic theophylline or theobromine derivatives” (1985):

Columns and labels:
Cavia porcellus [1] = assay: Percentage decrease in bronchodilator activity against serotonin-induced bronchospasm reaction in guinea pig by intraveneous administration at dose 250 ug/kg; assay type: functional
Cavia porcellus [2] = assay: Percent decrease in bronchodilator activity against acetylcholine-induced bronchospasm reaction in guinea pig by intraveneous administration at dose 250 ug/kg; assay type: functional
Rattus norvegicus [3] = assay: Percent decrease in antiallergic activity by antigen/antibody reaction assay in rat by oral administration at a dose of 10 mg/kg; assay type: functional
Rattus norvegicus [4] = assay: Percentage decrease in antiallergic activity against cutaneous reaction to histamine in rat, by oral administration at a dose of 10 mg/kg; assay type: functional
Cavia porcellus [5] = assay: Percent decrease in bronchodilator activity against histamine-induced bronchospasm reaction in guinea pig by intraveneous administration at dose 10.5 ug/kg

`Cn1c(=O)c2c(ncn2CC(O)CN2CCN(CCCOc3ccccc3)CC2)n(C)c1=O` (stereo not given) showed a Decrease (Cavia porcellus [1]) of 43%, a Decrease (Cavia porcellus [2]) of 23% and a Decrease (Rattus norvegicus [3]) of 94%. It also gave a Decrease (Rattus norvegicus [4]) of 78% and a Decrease (Cavia porcellus [5]) of 87%.
In the case of `Cn1cnc2c1c(=O)n(CC(O)CN1CCN(CCCSc3ccccc3)CC1)c(=O)n2C` (stereo not given), the Decrease (Cavia porcellus [1]) is reported as 96%, the Decrease (Cavia porcellus [2]) is reported as 24% and the Decrease (Rattus norvegicus [3]) is reported as 43%. The Decrease (Rattus norvegicus [4]) was 10% and the Decrease (Cavia porcellus [5]) was 66%.
`Cn1c(=O)c2c(ncn2CCCN2CCN(CCCOc3ccccc3)CC2)n(C)c1=O` showed a Decrease (Cavia porcellus [1]) of 35%, a Decrease (Cavia porcellus [2]) of 30% and a Decrease (Rattus norvegicus [3]) of 48%. For the same compound, the Decrease (Rattus norvegicus [4]) was 28% and the Decrease (Cavia porcellus [5]) was 88%.
In the case of `Cn1c(=O)c2c(ncn2CC(O)CN2CCN(CCCSc3ccc(Cl)cc3)CC2)n(C)c1=O` (stereo not given), the Decrease (Cavia porcellus [1]) is reported as 0%, the Decrease (Cavia porcellus [2]) is reported as 0% and the Decrease (Rattus norvegicus [3]) is reported as 35%. The Decrease (Rattus norvegicus [4]) was 67% and the Decrease (Cavia porcellus [5]) was 24%.
For `Cn1c(=O)c2c(ncn2CC(O)CN2CCCN(CCCSc3ccccc3)CC2)n(C)c1=O` (stereo not given), the Decrease (Cavia porcellus [1]) was 0%, the Decrease (Cavia porcellus [2]) was 0% and the Decrease (Rattus norvegicus [3]) was 0%. For the same compound, the Decrease (Rattus norvegicus [4]) was 4% and the Decrease (Cavia porcellus [5]) was 74%.
Work on `Cn1cnc2c1c(=O)n(CCCN1CCN(CCCSc3ccc(Cl)cc3)CC1)c(=O)n2C` yielded a Decrease (Cavia porcellus [1]) of 47%, a Decrease (Cavia porcellus [2]) of 27% and a Decrease (Rattus norvegicus [3]) of 17.5%. It also gave a Decrease (Rattus norvegicus [4]) of 12% and a Decrease (Cavia porcellus [5]) of 0%.
`Cc1ccc(SCCCN2CCN(CCCn3cnc4c3c(=O)n(C)c(=O)n4C)CC2)cc1` gave a Decrease (Cavia porcellus [1]) of 24%, a Decrease (Cavia porcellus [2]) of 35% and a Decrease (Rattus norvegicus [3]) of 0%. It also gave a Decrease (Rattus norvegicus [4]) of 0% and a Decrease (Cavia porcellus [5]) of 15%.
`COc1cc(OCCCN2CCN(CCCn3cnc4c3c(=O)n(C)c(=O)n4C)CC2)cc(OC)c1OC` gave a Decrease (Cavia porcellus [1]) of 0%, a Decrease (Cavia porcellus [2]) of 0% and a Decrease (Cavia porcellus [5]) of 0%.
In the case of `Cn1c(=O)c2c(ncn2CCCN2CCN(CCCOc3ccc(Cl)cc3)CC2)n(C)c1=O`, the Decrease (Cavia porcellus [1]) is reported as 0%, the Decrease (Cavia porcellus [2]) is reported as 0% and the Decrease (Rattus norvegicus [3]) is reported as 0%. For the same compound, the Decrease (Rattus norvegicus [4]) was 0% and the Decrease (Cavia porcellus [5]) was 30%.
`Cn1c(=O)c2c(ncn2CCN2CCN(CCCSc3ccccc3)CC2)n(C)c1=O` was tested, and the Decrease (Cavia porcellus [1]) was 48%, the Decrease (Cavia porcellus [2]) was 0% and the Decrease (Rattus norvegicus [3]) was 28%. For the same compound, the Decrease (Rattus norvegicus [4]) was 21% and the Decrease (Cavia porcellus [5]) was 0%.
In the case of `Cn1c(=O)c2c(ncn2CC(O)CN2CCN(CCCCOc3ccccc3)CC2)n(C)c1=O` (stereo not given), the Decrease (Cavia porcellus [1]) is reported as 22%, the Decrease (Cavia porcellus [2]) is reported as 45% and the Decrease (Rattus norvegicus [3]) is reported as 0%. The Decrease (Rattus norvegicus [4]) was 0% and the Decrease (Cavia porcellus [5]) was 82%.
`Cn1c(=O)c2c(ncn2CCCN2CCN(CCOc3ccccc3)CC2)n(C)c1=O` was tested, and the Decrease (Cavia porcellus [1]) was 0%, the Decrease (Cavia porcellus [2]) was 15% and the Decrease (Rattus norvegicus [3]) was 0%. It also gave a Decrease (Rattus norvegicus [4]) of 0% and a Decrease (Cavia porcellus [5]) of 70%.
`Cn1c(=O)c2c(ncn2CC(O)CN2CCN(CC(O)CSc3ccccc3)CC2)n(C)c1=O` (stereo not given) was tested, and the Decrease (Cavia porcellus [1]) was 0%, the Decrease (Cavia porcellus [2]) was 0% and the Decrease (Rattus norvegicus [3]) was 0%. It also gave a Decrease (Rattus norvegicus [4]) of 29% and a Decrease (Cavia porcellus [5]) of 89%.
Compound `Cc1ccc(SCCCN2CCN(CC(O)Cn3c(=O)c4c(ncn4C)n(C)c3=O)CC2)cc1` (stereo not given) has a Decrease (Cavia porcellus [1]) of 42%, a Decrease (Cavia porcellus [2]) of 29% and a Decrease (Rattus norvegicus [3]) of 11%. It also gave a Decrease (Rattus norvegicus [4]) of 4% and a Decrease (Cavia porcellus [5]) of 10%.
`CN(C)CCC(c1ccc(Cl)cc1)c1ccccn1` (stereo not given) [CHLORPHENIRAMINE] gave a Decrease (Cavia porcellus [1]) of 0%, a Decrease (Rattus norvegicus [3]) of 0% and a Decrease (Rattus norvegicus [4]) of 15%. For the same compound, the Decrease (Cavia porcellus [5]) was 62%.
Work on `Cn1c(=O)c2c(ncn2CCCN2CCN(CCCCSc3ccccc3)CC2)n(C)c1=O` yielded a Decrease (Cavia porcellus [1]) of 24%, a Decrease (Cavia porcellus [2]) of 34% and a Decrease (Rattus norvegicus [3]) of 0%. It also gave a Decrease (Rattus norvegicus [4]) of 0% and a Decrease (Cavia porcellus [5]) of 47%.
For `Cc1cc(OCCCN2CCN(CC(O)Cn3c(=O)c4c(ncn4C)n(C)c3=O)CC2)cc(C)c1Cl` (stereo not given), the Decrease (Cavia porcellus [1]) was 53%, the Decrease (Cavia porcellus [2]) was 0% and the Decrease (Rattus norvegicus [3]) was 8%. The Decrease (Rattus norvegicus [4]) was 8% and the Decrease (Cavia porcellus [5]) was 2%.
`Cn1cnc2c1c(=O)n(CCCN1CCN(CCCOc3ccccc3)CC1)c(=O)n2C` gave a Decrease (Cavia porcellus [1]) of 47%, a Decrease (Cavia porcellus [2]) of 30% and a Decrease (Rattus norvegicus [3]) of 23%. For the same compound, the Decrease (Rattus norvegicus [4]) was 0% and the Decrease (Cavia porcellus [5]) was 28%.
Work on `Cn1cnc2c1c(=O)n(CC(O)CN1CCN(CCCOc3ccc(Cl)cc3)CC1)c(=O)n2C` (stereo not given) yielded a Decrease (Cavia porcellus [1]) of 11%, a Decrease (Cavia porcellus [2]) of 14% and a Decrease (Rattus norvegicus [3]) of 23%. It also gave a Decrease (Rattus norvegicus [4]) of 24% and a Decrease (Cavia porcellus [5]) of 19%.
For `CC(CN1c2ccccc2Sc2ccccc21)N(C)C` (stereo not given) [PROMETHAZINE], the Decrease (Cavia porcellus [1]) was 0%, the Decrease (Cavia porcellus [2]) was 0% and the Decrease (Rattus norvegicus [3]) was 30%. It also gave a Decrease (Rattus norvegicus [4]) of 58% and a Decrease (Cavia porcellus [5]) of 40%.
For `Cn1c(=O)c2c(ncn2CCC(=O)N2CCN(CCCSc3ccccc3)CC2)n(C)c1=O`, the Decrease (Cavia porcellus [1]) was 0%, the Decrease (Cavia porcellus [2]) was 3% and the Decrease (Rattus norvegicus [3]) was 0%. For the same compound, the Decrease (Rattus norvegicus [4]) was 0% and the Decrease (Cavia porcellus [5]) was 2%.
With `CN1CCC(=C2c3ccccc3CC(=O)c3sccc32)CC1` [KETOTIFEN] the Decrease (Rattus norvegicus [3]) was 64%, the Decrease (Rattus norvegicus [4]) was 90% and the Decrease (Cavia porcellus [5]) was 10%.
With `Cn1cnc2c1c(=O)n(CCCN1CCN(CCCOc3ccc(Cl)cc3)CC1)c(=O)n2C` the Decrease (Cavia porcellus [1]) was 30%, the Decrease (Cavia porcellus [2]) was 18% and the Decrease (Rattus norvegicus [3]) was 13%. For the same compound, the Decrease (Rattus norvegicus [4]) was 12.5% and the Decrease (Cavia porcellus [5]) was 14%.
